Experimental data from patent US7803757B2, “Peptides based on the sequence of human lactoferrin and their use” (PharmaSurgics in Sweden AB, priority 1998, dated 2010).
Peptide text beside a SMILES is read from it. * marks the point of attachment. Acm = CC(=O)NC*

What was measured:
Format in all cases: cell-based
E. coli O14 [1] = test: bactericidal activity, incubation with E. coli O14 (Example 3, exp. I and III)
Procedure: (§1) Human lactoferrin (hLF), peptide 3, and peptide 4, respectively, were incubated with two different strains of E. coli, E. coli O14 (experiment I) and O6K5 (experiment II), in diluted growth medium ( 1/100 BHI—brain heart infusion) for 2 hours. The peptides were also incubated with E. coli O14 in 0.05 mM KCl (pH 7) without any growth medium (experiment III). Different concentrations of the peptides were tested.
(§2) After the incubation, samples were taken for bacterial plating. Serial dilutions of five- and fourfold steps were used in experiments I and II, respectively, and of twofold steps in experiment III.
(§3) The concentrations of the different peptides required for killing 100% (experiments I and II) or 90% (experiment III) of the bacteria are given in table 2.

E. coli O6K5 [2] = test: bactericidal activity, incubation with E. coli O6K5 (Example 3, exp. II); conditions: Exp. II: 100% killing, E. coli O6K5, 1/100 BHI, 2 hours
Procedure: as §1, §2, §3

Candida albicans = test: fungicidal activity against Candida albicans strains (Example 4)
Procedure: (§4) In this example the fungicidal activity of the peptides according to the invention was tested and compared to the fungicidal activity of human lactoferrin. Different concentrations of hLF, peptide 3 and peptide 4 were incubated with different strains of Candida albicans and Candida krusei during 1-2 hours at 37° C. in 0.05 mM KCl at pH 7.0 at two different occasions—experiment I and II, respectively. After incubation samples were taken for plating on Saboroud plates.

Candida krusei = test: fungicidal activity against Candida krusei strains (Example 4); conditions: Exp. I
Procedure: as §4

E. coli O14 [3] = test: bactericidal activity against E. coli O14, comparison with EP-A-0 629 347 peptides (Example 7); conditions: E. coli O14, II: serial dilutions of twofold steps
Procedure: In this example an in vitro test was performed to compare the bactericidal and fungicidal activity of the peptides according to the invention with peptides described in EP-A-0 629 347. The peptide according to the invention used was peptide 4, and the peptides according to EP-A-0 629 347 called Morinaga 10, Morinaga 11, Morinaga 12, and Morinaga 13.
The peptides were incubated with E. coli O14 and Candida albicans. Two concentrations of C. albicans yeast cells were tested, 5·10^6 and 5·10^3 per ml. Different concentrations of the peptides were tested.
After the incubation, samples were taken for bacterial plating. Serial dilutions of tenfold steps were used in the experiments marked with I in table 5 and of twofold steps in the experiments marked with II.

E. coli O14 [4] = test: bactericidal and growth inhibitory activity, E. coli O14 (Example 9)
Procedure: E. coli O14 was incubated as described above in the presence of the peptides during 2 hours. The bactericidal activity was measured in the same way as described above.
The inhibition of growth was measured spectrophotometrically after incubation during 20 hours.

C. albicans = test: fungicidal activity MMC99%, C. albicans (Example 27); conditions: BHI diluted 1/100 (Table 23)
Procedure: In the examples, the minimal microbicidal concentrations (MMC) and minimal inhibitory concentrations (MIC) were determined as follows, unless otherwise specified in the examples. Bacterial or fungal strains were cultured in BHI medium over night at 37° C. A volume of the culture was transferred to a new tube with BHI and incubated for two more hours. Thereafter the cells were spun down and the pellet was suspended in BHI medium diluted 1/100 (1% BHI). The concentration of bacterial or fungal cells was spectrophotometrically determined at 650 nm. The microbial concentrations were also determined by viable counts. Peptides serially diluted in 1% BHI by twofold or tenfold steps were added in triplicate to the wells of a microtiterplate (200 μl per well). The bacterial or fungal cell solutions were added in 10 μl volumes to give a final concentration of approximately 1-5×10^5 cells per ml in the well. The microplate was incubated at 37° C. in a humid chamber for two hours. Thereafter 5 μl was taken from each well and added as a drop onto a blood agar plate and incubated over night at 37° C. The microplate was incubated for another 20 hours at 37° C. and thereafter analysed spectrophotometrically at 650 nm in a microplate reader (Emax, Molecular Devices, USA). The concentration of peptide causing a 99% reduction of the inoculum after 2 hours of incubation was defined as the MMC99%. The MIC value was defined as the concentration giving no increase in the absorbance value above the background level after 20 hours of incubation.
In this example the fungicidal activity of three of the peptides according to the invention was studied, and tested against three different fungi. The fungi were incubated in BHI medium diluted 1/100. The concentration of each peptide needed to kill 99% of the fungi (MMC99%) was determined.

E. coli O6K5 [5] = test: microbicidal activity MMC99%, E. coli O6K5 (Example 28); conditions: E. coli O6K5 (Table 24)
Procedure, shortened: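 Peptides serially diluted in 1% BHI were incubated with E. coli O6K5 or C. albicans (~1-5×10^5 cells/ml) for 2 h at 37 °C, then spotted on blood agar overnight. MMC99% was the peptide concentration causing 99% reduction of the inoculum.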

## CC[C@H](C)[C@H](NC(=O)[C@H](CSCNC(C)=O)NC(=O)[C@H](CO)NC(=O)[C@@H](NC(=O)[C@@H]1CCCN1C(=O)[C@@H]1CCCN1C(=O)CNC(=O)[C@H](CCCNC(=N)N)NC(=O)[C@@H](NC(=O)[C@H](CCCCN)NC(=O)[C@H](CCCNC(=N)N)NC(=O)[C@H](CCSC)NC(=O)[C@H](CC(N)=O)NC(=O)[C@H](CCCNC(=N)N)NC(=O)[C@H](CCC(N)=O)NC(=O)[C@H](Cc1c[nH]c2ccccc12)NC(=O)[C@H](CCC(N)=O)NC(=O)[C@H](Cc1ccccc1)NC(=O)[C@H](CSCNC(C)=O)NC(=O)[C@H](CCCCN)NC(=O)[C@@H](NC(C)=O)[C@@H](C)O)C(C)C)C(C)C)C(=O)N[C@@H](CCCCN)C(=O)N[C@@H](CCCNC(=N)N)C(N)=O [Peptide 4] (Ac-TKC(Acm)FQWQRNMRKVRGPPVSC(Acm)IKR-NH2)
E. coli O14 [1]; Exp. I: 100% killing, E. coli O14, 1/100 BHI, 2 hours
  Concentration of agent for 100%/90% killing: 4.4 µg/mL
E. coli O14 [1]; Exp. III: 90% killing, E. coli O14, 0.05 mM KCl (pH 7) without growth medium
  Concentration of agent for 100%/90% killing: 3.2 µg/mL
E. coli O6K5 [2]
  Concentration of agent for 100%/90% killing: ≦7.8 μg/ml
Candida albicans; Exp. I, C. albicans ATCC 64549
  ratio hLF/pep. (concentration for 99% killing): >40
Candida albicans; Exp. I, C. albicans ATCC 64549, 0.05 mM KCl pH 7.0, 1-2 hours 37° C.
  Concentration of agent for 99% killing: 1.25 µg/mL
Candida albicans; Exp. I, C. albicans CCUG 90028
  ratio hLF/pep. (concentration for 99% killing): >40
Candida albicans; Exp. I, C. albicans CCUG 90028, 0.05 mM KCl pH 7.0
  Concentration of agent for 99% killing: 1.25 µg/mL
Candida albicans; Exp. II, C. albicans ATCC 64549
  ratio hLF/pep. (concentration for 99% killing): >133
Candida albicans; Exp. II, C. albicans ATCC 64549, 0.05 mM KCl pH 7.0
  Concentration of agent for 99% killing: 1.5 µg/mL
Candida albicans; Exp. II, C. albicans CCUG 599
  ratio hLF/pep. (concentration for 99% killing): >133
Candida albicans; Exp. II, C. albicans CCUG 599, 0.05 mM KCl pH 7.0
  Concentration of agent for 99% killing: 1.5 µg/mL
Candida albicans; Exp. II, C. albicans CCUG 1759
  ratio hLF/pep. (concentration for 99% killing): >133
Candida albicans; Exp. II, C. albicans CCUG 1759, 0.05 mM KCl pH 7.0
  Concentration of agent for 99% killing: 1.5 µg/mL
Candida krusei; C. krusei CCUG 969
  ratio hLF/pep. (concentration for 99% killing): 10
Candida krusei; C. krusei CCUG 969, 0.05 mM KCl pH 7.0
  Concentration of agent for 99% killing: 2.5 µg/mL
Candida krusei; C. krusei CCUG 35849
  ratio hLF/pep. (concentration for 99% killing): 10
Candida krusei; C. krusei CCUG 35849, 0.05 mM KCl pH 7.0
  Concentration of agent for 99% killing: 1.25 µg/mL
E. coli O14 [3]
  Concentration of agent for 100% killing: 12 µg/mL
E. coli O14 [4]; E. coli O14, 2 hours
  Concentration of agent for 100% killing: 12.5 µg/mL
E. coli O14 [4]; E. coli O14, spectrophotometrically after 20 hours
  Concentration of agent for inhibition of growth: 3.1 µg/mL
C. albicans
  MMC99%: 6.3
E. coli O6K5 [5]
  MMC99%: 20
